In ChEMBL document CHEMBL6078700, “Synthesis of novel deuterated EGFR/ALK dual-target inhibitors and their activity against non-small cell lung cancer” (Eur J Med Chem, 2025):

Legend:
NCI-H2228 = assay: Antiproliferative activity against human NCI-H2228 cells expressing EML4-ALK fusion incubated for 48 hrs by CCK8 assay
PC-9 = assay: Antiproliferative activity against human PC-9 cells expressing EGFR mutation incubated for 48 hrs by CCK8 assay
[1] = Antiproliferative activity against human NCI-H1975 cells expressing EGFR mutation incubated for 48 hrs by CCK8 assay
NCI-H522 = assay: Antiproliferative activity against human NCI-H522 cells expressing wild-type EGFR/ALK incubated for 48 hrs by CCK8 assay
BaF3 = assay: Antiproliferative activity against mouse BaF3 cells expressing EML4-ALK fusion incubated for 48 hrs by CCK8 assay
NCI-H1975 [2] = assay: Antitumor activity against human NCI-H1975 cells xenografted in BALB/c-nu mouse at 30 mg/kg, po administered daily orally for 7 days relative to control; assay type: functional; conditions: time 7 day; for inhibition in vivo at 30 mg/kg: Mus musculus, NCI-H1975, 168 h, read-out: TGI
EML4-ALK = EML4-ALK (Homo sapiens, UniProt Q9UM73); assay: Inhibition of EML4-ALK (unknown origin) phosphorylation by ELISA; assay type: protein assay
Sequence of EML4-ALK (Q9UM73 whole entry): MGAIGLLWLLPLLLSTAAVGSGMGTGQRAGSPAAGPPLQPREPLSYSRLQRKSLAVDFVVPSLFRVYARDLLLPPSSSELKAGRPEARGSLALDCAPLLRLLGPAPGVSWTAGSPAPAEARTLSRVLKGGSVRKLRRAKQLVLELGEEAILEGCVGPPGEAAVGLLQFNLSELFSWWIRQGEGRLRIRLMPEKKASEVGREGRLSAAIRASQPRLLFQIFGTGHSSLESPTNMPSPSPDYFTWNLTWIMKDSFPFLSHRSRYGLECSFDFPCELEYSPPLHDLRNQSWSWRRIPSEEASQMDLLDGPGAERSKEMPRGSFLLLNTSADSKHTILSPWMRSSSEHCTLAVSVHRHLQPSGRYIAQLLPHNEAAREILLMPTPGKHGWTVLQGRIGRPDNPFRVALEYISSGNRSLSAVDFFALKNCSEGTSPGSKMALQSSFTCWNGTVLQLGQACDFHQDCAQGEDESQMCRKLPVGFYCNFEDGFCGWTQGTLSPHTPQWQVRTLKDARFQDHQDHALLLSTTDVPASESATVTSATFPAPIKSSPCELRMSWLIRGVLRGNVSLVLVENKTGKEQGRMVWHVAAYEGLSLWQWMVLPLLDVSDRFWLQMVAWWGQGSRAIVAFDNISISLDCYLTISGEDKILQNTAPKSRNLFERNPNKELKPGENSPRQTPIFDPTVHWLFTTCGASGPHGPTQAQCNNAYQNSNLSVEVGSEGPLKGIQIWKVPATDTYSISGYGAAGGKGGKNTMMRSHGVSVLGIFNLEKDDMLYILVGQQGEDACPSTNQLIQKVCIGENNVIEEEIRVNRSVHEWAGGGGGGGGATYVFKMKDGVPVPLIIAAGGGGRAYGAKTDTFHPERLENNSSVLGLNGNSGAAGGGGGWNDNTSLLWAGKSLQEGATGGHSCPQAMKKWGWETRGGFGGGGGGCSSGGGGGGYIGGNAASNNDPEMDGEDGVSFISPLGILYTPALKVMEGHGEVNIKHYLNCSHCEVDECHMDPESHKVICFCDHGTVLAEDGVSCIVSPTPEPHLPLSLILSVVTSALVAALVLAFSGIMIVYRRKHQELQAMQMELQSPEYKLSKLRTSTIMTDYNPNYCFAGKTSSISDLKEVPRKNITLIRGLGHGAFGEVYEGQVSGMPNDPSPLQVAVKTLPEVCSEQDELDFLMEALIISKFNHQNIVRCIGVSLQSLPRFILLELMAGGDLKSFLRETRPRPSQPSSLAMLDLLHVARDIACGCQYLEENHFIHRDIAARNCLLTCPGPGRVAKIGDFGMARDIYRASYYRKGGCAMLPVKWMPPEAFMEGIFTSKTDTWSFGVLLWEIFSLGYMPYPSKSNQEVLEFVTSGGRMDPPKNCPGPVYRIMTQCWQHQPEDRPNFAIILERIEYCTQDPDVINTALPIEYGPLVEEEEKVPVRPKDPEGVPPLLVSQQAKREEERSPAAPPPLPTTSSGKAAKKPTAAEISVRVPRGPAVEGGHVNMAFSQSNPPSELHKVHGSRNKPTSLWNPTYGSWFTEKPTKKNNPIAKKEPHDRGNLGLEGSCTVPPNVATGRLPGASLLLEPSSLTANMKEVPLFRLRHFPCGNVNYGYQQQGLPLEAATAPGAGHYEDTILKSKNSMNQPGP
Sequence of EML4-ALK (Q9HC35 whole entry, further chain): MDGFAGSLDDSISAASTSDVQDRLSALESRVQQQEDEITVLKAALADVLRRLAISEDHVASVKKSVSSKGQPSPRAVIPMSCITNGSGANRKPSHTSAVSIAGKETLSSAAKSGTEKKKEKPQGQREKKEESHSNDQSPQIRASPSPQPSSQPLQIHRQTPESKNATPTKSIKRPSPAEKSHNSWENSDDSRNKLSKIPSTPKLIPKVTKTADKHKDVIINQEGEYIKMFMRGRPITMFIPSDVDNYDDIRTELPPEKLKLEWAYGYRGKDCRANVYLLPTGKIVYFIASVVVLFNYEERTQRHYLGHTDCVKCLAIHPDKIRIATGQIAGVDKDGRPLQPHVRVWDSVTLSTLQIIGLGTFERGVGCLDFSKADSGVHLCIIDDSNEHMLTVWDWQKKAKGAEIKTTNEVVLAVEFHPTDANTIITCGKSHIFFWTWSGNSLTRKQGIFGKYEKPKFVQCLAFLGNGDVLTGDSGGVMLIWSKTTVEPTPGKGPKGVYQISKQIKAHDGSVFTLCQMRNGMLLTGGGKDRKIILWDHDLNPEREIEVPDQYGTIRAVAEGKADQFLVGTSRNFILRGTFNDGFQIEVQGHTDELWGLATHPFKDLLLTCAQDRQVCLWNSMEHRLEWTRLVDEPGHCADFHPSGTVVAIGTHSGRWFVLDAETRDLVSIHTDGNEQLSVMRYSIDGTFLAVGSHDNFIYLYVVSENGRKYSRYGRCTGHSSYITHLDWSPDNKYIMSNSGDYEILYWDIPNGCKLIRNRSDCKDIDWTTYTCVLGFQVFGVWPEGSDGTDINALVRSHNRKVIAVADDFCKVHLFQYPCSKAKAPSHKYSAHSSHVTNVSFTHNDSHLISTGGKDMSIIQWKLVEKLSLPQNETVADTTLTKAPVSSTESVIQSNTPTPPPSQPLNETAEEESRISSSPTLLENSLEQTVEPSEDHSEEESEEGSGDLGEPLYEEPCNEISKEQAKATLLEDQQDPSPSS

[3] = Metabolic stability in human liver microsomes assessed as half life at 1 uM measured for 60 mins by LC-MS/MS analysis; assay type: ADME, Microsome
[4] = Metabolic stability in human liver microsomes assessed as clearance at 1 uM measured for 60 mins by LC-MS/MS analysis; assay type: ADME, Microsome; conditions: read-out: CLH
NCI-H1975 [5] = assay: Antitumor activity against human NCI-H1975 cells xenografted in BALB/c-nu mouse at 5 mg/kg, po administered daily orally for 21 days relative to control; assay type: functional; conditions: time 21 day, 5 mg/kg, 504 h
NCI-H1975 [6] = assay: Antitumor activity against human NCI-H1975 cells xenografted in BALB/c-nu mouse at 30 mg/kg, po administered daily orally for 21 days relative to control; assay type: functional; conditions: time 21 day
NCI-H1975 [7] = assay: Antitumor activity against human NCI-H1975 cells xenografted in BALB/c-nu mouse at 15 mg/kg, po administered daily orally for 21 days relative to control; assay type: functional; conditions: time 21 day, 15 mg/kg, 504 h
NCI-H1975 [8] = assay: Induction of apoptosis in human NCI-H1975 cells assessed as necrotic cells at 5 nM incubated for 48 hrs by allo-Phycocyanin-Annexin V staining based flow cytometry (reference value: 0.031 %); assay type: functional
NCI-H1975 [9] = assay: Induction of apoptosis in human NCI-H1975 cells assessed as late apoptotic cells at 5 nM incubated for 48 hrs by allo-Phycocyanin-Annexin V staining based flow cytometry (reference value: 4.08 %); assay type: functional
NCI-H1975 [10] = assay: Induction of cell cycle arrest in human NCI-H1975 cells assessed as accumulation at S phase at 5 nM incubated for 24 hrs by PI/RNase staining based flow cytometry (reference value: 17.1 %); assay type: functional
NCI-H1975 [11] = assay: Induction of apoptosis in human NCI-H1975 cells assessed as early apoptotic cells at 5 nM incubated for 48 hrs by allo-Phycocyanin-Annexin V staining based flow cytometry (reference value: 2.27 %); assay type: functional
NCI-H1975 [12] = assay: Induction of cell cycle arrest in human NCI-H1975 cells assessed as accumulation at G2/M phase at 5 nM incubated for 24 hrs by PI/RNase staining based flow cytometry (reference value: 32.71 %); assay type: functional
NCI-H1975 [13] = assay: Induction of apoptosis in human NCI-H1975 cells assessed as viable cells at 5 nM incubated for 48 hrs by allo-Phycocyanin-Annexin V staining based flow cytometry (reference value: 93.6 %); assay type: functional
NCI-H1975 [14] = assay: Induction of cell cycle arrest in human NCI-H1975 cells assessed as accumulation at G0/G1 phase at 5 nM incubated for 24 hrs by PI/RNase staining based flow cytometry (reference value: 50.19 %); assay type: functional

| SMILES | IC50 (NCI-H2228; Homo sapiens, NCI-H2228, 48 h) [nM] | IC50 (PC-9; Homo sapiens, PC-9, 48 h) [nM] | IC50 ([1]; Homo sapiens, NCI-H1975, 48 h) [nM] | IC50 (NCI-H522; Homo sapiens, NCI-H522, 48 h) [nM] | IC50 (BaF3; Mus musculus, BaF3, 48 h) [nM] | IC50 (EML4-ALK) [nM] | half-life at 1 µM [3] [min] | microsomal CLint at 1 µM [4] [µL/min/mg] | also measured |
| --- | --- | --- | --- | --- | --- | --- | --- | --- | --- |
| Cc1cc(Nc2ncc(Cl)c(Nc3ccccc3S(=O)(=O)C(C)C)n2)c(OC(C)C)cc1C1CCNCC1 [CERITINIB] | 18.3 | 2150 | 2110 | 2760 | 10.1 | – | – | – | – |
| C=CC(=O)Nc1cc(Nc2ncc(Cl)c(Nc3cccc(F)c3[S+]([O-])CC)n2)c(OC)cc1N(C)CCN(C)C (stereo not given) | 66.8 | 3.14 | 2.79 | 7860 | 4.03 | 4.47 | 223 | 15.5 | inhibition in vivo at 30 mg/kg (NCI-H1975 [2]): 75.3% |
| [2H]C([2H])([2H])C([2H])([S+]([O-])c1ccccc1Nc1nc(Nc2cc(NC(=O)C=C)c(N(C)CCN(C)C)cc2OC)ncc1Cl)C([2H])([2H])[2H] (stereo not given) | 12.5 | 45.9 | 9.26 | 2730 | 14.4 | 10 | 31.9 | 109 | – |
| [2H]C([2H])([2H])C([2H])([2H])[S+]([O-])c1c(F)cccc1Nc1nc(Nc2cc(NC(=O)C=C)c(N(C)CCN(C)C)cc2OC)ncc1Cl (stereo not given) | 58.2 | 5.13 | 9.56 | 5330 | 7.74 | 5.59 | 125 | 27.7 | inhibition in vivo at 30 mg/kg (NCI-H1975 [2]): 85.9% |
| [2H]C([2H])([2H])C([2H])([2H])[S+]([O-])c1ccccc1Nc1nc(Nc2cc(NC(=O)C=C)c(N(C)CCN(C)C)cc2OC)ncc1Cl (single isomer, unassigned; (+)) | – | – | – | – | – | – | – | – | IC50 (NCI-H2228; nci-h2228): 37.6 nM; IC50 (PC-9; pc-9): 6.88 nM; IC50 ([1]; nci-h1975): 5.36 nM; TGI (NCI-H1975 [5]): 72.01%; IC50 (NCI-H522; nci-h522): 6330 nM; TGI (NCI-H1975 [6]; 30 mg/kg, 504 h): 91.87%; TGI (NCI-H1975 [7]): 86.97%; IC50 (BaF3; baf3): 18.3 nM |
| [2H]C([2H])([2H])C([2H])([S+]([O-])c1c(F)cccc1Nc1nc(Nc2cc(NC(=O)C=C)c(N(C)CCN(C)C)cc2OC)ncc1Cl)C([2H])([2H])[2H] (stereo not given) | 23.7 | 5.56 | 17.2 | 2160 | 16.1 | 2.09 | 49.1 | 70.5 | – |
| C=CC(=O)Nc1cc(Nc2ncc(Cl)c(Nc3cccc(F)c3[S+]([O-])C(C)C)n2)c(OC)cc1N(C)CCN(C)C (stereo not given) | 23.8 | 2.81 | 7.59 | 2490 | 2.97 | 5.47 | 32.3 | 107 | – |
| [2H]C([2H])([2H])C([2H])([2H])[S+]([O-])c1ccccc1Nc1nc(Nc2cc(NC(=O)C=C)c(N(C)CCN(C)C)cc2OC)ncc1Cl (racemic) | 29.2 | – | – | – | – | 3.72 | 162 | 21.4 | inhibition in vivo at 30 mg/kg (NCI-H1975 [2]): 96.8%; IC50 (PC-9; pc-9): 6.32 nM; IC50 ([1]; nci-h1975): 2.33 nM; IC50 (NCI-H522; nci-h522): 4630 nM; IC50 (BaF3; baf3): 3.53 nM |
| C=CC(=O)Nc1cc(Nc2ncc(Cl)c(Nc3cccc(Cl)c3[S+]([O-])C(C)C)n2)c(OC)cc1N(C)CCN(C)C (stereo not given) | 22.5 | 4.05 | 7.55 | 2380 | 9.31 | 7.39 | 37.7 | 92 | – |
| C=CC(=O)Nc1cc(Nc2ncc(Cl)c(Nc3ccccc3[S+]([O-])CC)n2)c(OC)cc1N(C)CCN(C)C (stereo not given) | 43.1 | 6.1 | 4.3 | – | 3.6 | 4.69 | – | – | – |
| C=CC(=O)Nc1cc(Nc2ncc(Cl)c(Nc3cccc(Cl)c3[S+]([O-])CC)n2)c(OC)cc1N(C)CCN(C)C (stereo not given) | 54.2 | < 0.001 | 3.76 | 2420 | 36 | 7.32 | 52 | 66.7 | – |
| COc1cc(N2CCC(N3CCN(C)CC3)CC2)ccc1Nc1ncc(Cl)c(Nc2ccccc2P(C)(C)=O)n1 [BRIGATINIB] | 28.9 | 983 | 484 | 4610 | 7.46 | – | – | – | – |
| C=CC(=O)Nc1cc(Nc2ncc(Cl)c(Nc3ccc(Cl)cc3[S+]([O-])C(C)C)n2)c(OC)cc1N(C)CCN(C)C (stereo not given) | 18.9 | 2.53 | 3.77 | 1380 | 2.37 | 6.81 | 26.3 | 132 | – |
| C=CC(=O)Nc1cc(Nc2nccc(-c3cn(C)c4ccccc34)n2)c(OC)cc1N(C)CCN(C)C [OSIMERTINIB] | 1840 | 6.43 | 4.16 | 2320 | 327 | – | – | – | Activity (NCI-H1975 [8]): 0.032%; Activity (NCI-H1975 [9]): 16.7%; TGI (NCI-H1975 [2]): 94.73%; Activity (NCI-H1975 [10]): 6.87%; Activity (NCI-H1975 [11]): 12.2%; Activity (NCI-H1975 [12]): 27.24%; Activity (NCI-H1975 [13]): 71.1%; Activity (NCI-H1975 [14]): 65.8%; TGI (NCI-H1975 [6]): 95.05% |
| [2H]C([2H])([2H])C([2H])([2H])[S+]([O-])c1cc(Cl)ccc1Nc1nc(Nc2cc(NC(=O)C=C)c(N(C)CCN(C)C)cc2OC)ncc1Cl (stereo not given) | 32.4 | 3.91 | 3.88 | 2710 | 3.61 | 8.81 | 50.5 | 68.7 | – |
